The record followed here is patent publication US20050203156A1, “Hydantoins having RNase modulatory activity” (Wyeth, priority 2004, published 2005).

By IC50 is commonly meant the concentration that inhibits the measured activity by half.

The target in test [1] is T1, HIV reverse transcriptase (RNase H activity) (Human immunodeficiency virus type 1 group M subtype B, UniProt P04585).
T1 construct: HIV reverse transcriptase has an RNase H domain at the C-terminus of its p66 subunit
Nature of the test: Inhibition of RNase H / HIV reverse transcriptase (fluorescent probe-target hybrid assay). The test is classed as biochemical. As to conditions: Table I. An excerpt:
RNase H is an enzyme responsible for the removal of RNA primers from leading and lagging strands during DNA synthesis. It is an important enzyme for the replication of bacterial, viral and human genomes. HIV reverse transcriptase has an RNase H domain at the C-terminus of its p66 subunit. […] The ability of the compounds of the present invention to inhibit RNase H, and more particularly HIV reverse transcriptase, may be measured or determined by any means known in the art.
Preferably, the RNase H/HIV reverse transcriptase modulatory activity of the compounds of the present invention may be determined by the methods described in a copending U.S. provisional patent Application No. 60/436,125, filed Dec. 19, 2002 and PCT Publication No. WO 2004/059012, filed Dec. 22, 2003, published Jul. 15, 2004, entitled ASSAY FOR RNase ACTIVITY of Olson et al., incorporated herein by reference in their entirety. Specifically, the modulatory activity of a hydantoin derivative of the present invention may be determined by hybridizing a target nucleic acid to a fluorescently labeled oligonucleotide probe complementary to the target nucleic acid and containing a fluorophor at one terminus and a quenching group at the other terminus to obtain a probe-target hybrid, wherein (i) the unhybridized probe adopts a conformation that places the fluorophor and quencher in such proximity that the quencher quenches the fluorescent signal of the fluorophor, and (ii) the formation of the probe-target hybrid causes sufficient separation of the fluorophor and quencher to reduce quenching of the fluorescent signal of the fluorophor. Next, a first and second sample containing the probe-target hybrid are prepared. The probe-target hybrid of the first sample is then contacted with an RNase H enzyme (such as HIV reverse transcriptase) in an amount sufficient to selectively cleave the target nucleic acid and thereby release the intact probe. The probe-target hybrid of the second sample is also contacted with the RNase H enzyme in an amount sufficient to selectively cleave the target nucleic acid and thereby release the intact probe in the presence of a hydantoin derivative of the present invention. The release of the probe in each sample may then be detected by measuring the […] in the fluorescent signal of the fluorophor as compared to the signal of the probe-target hybrid. A comparison of the rate of the decrease in the fluorescent signal of the fluorophor in the two samples is made to determine whether there is a difference in the rate of the decrease in the two samples. […] This method is also useful to identify hydantoin derivatives of the present invention, wherein candidate hydantoin derivatives are screened for their ability to modulate RNase/HIV reverse transcriptase activity.

Test [2] deals with T2, HIV reverse transcriptase (RDDP polymerase activity) (Human immunodeficiency virus type 1 group M subtype B, UniProt P04585).
T2 construct: HIV Reverse transcriptase (RT) 66/p51; purchased Worthington
The experiment in a line: RNA dependent DNA polymerase (RDDP) activity of HIV RT, polyrA-oligodT12-18 / 33P TTP incorporation. The test is classed as biochemical.

With `CC[C@@]1(c2ccc(C)cc2)NC(=O)NC1=O` [(5S)-5-ethyl-5-(4-methylphenyl)imidazolidine-2,4-dione], the IC50 is 2 µM in test [1] and over 180 µM in test [2]. The like results for `C[C@]1(c2ccccc2)NC(=O)N(C(=O)/C=C/c2ccc(C(F)(F)F)cc2)C1=O` [(5R)-5-methyl-5-phenyl-3-{(2E)-3-[4(trifluoromethyl)phenyl]prop-2-enoyl]imidizolidine-2,4-dione] were, in that order, 58 µM and over 105 µM. In turn, `CCC1(c2ccc(Br)cc2)NC(=O)NC1=O` (stereo not shown) [5-(4-bromo-phenyl)-5-ethyl-imidazolidine-2,4-dione] displayed an IC50 in test [1] of 64 µM. For `C=CN1C(=O)NC(C)(C)C1=O` [5,5-dimethyl-3-vinyl-imidazolidine-2,4-dione], the figures for the IC50 in test [1] and in test [2] were 50 µM and over 107 µM, respectively. For the compound `O=C(c1ccccc1)N1C(=O)N2CCc3ccccc3C2(c2ccccc2)C1=O` (stereo not shown) [2-benzoyl-10b-phenyl-6,10b-dihydro-5H-imidazo[5,1-a]isoquinoline-1,3-dione], in test [1], the IC50 was 63 µM. Consider `CC1(c2ccccc2)NC(=O)N(C(=O)/C=C/c2ccccc2)C1=O` (stereo not shown) [5-methyl-5-phenyl-3-[(2E)-3-phenylprop-2-enoyl]imidazolidine-2,4-dione], for which the IC50 in test [1] is 46 µM; in test [2], over 260 µM. Consider `O=C1NC(=O)C(=Cc2cc(Cl)cc(Cl)c2O)N1` [5-(3,5-Dichloro-2-hydroxy-benzylidene)-imidazolidine-2,4-dione], for which the IC50 was 57 µM in test [1] and over 102 µM in test [2]. Consider `Cc1cc(C(=O)N2C(=O)NC(C)(c3ccccc3)C2=O)ccc1Cl` (stereo not shown) [3-(4-chloro-3-methylbenzoyl)-5-methyl-5-phenylimidazolidine-2,4-dione], for which, in test [1], the IC50 stood at 100 µM. Consider `CC1(c2ccccc2)NC(=O)N(C(=O)/C=C/c2ccc(F)c(C(F)(F)F)c2)C1=O` (stereo not shown) [3-{(2E)-3-[4-fluoro-3-(trifluoromethyl)phenyl]prop-2-enoyl}-5-methyl-5-phenylimidazolidine-2,4-dione], for which the IC50 in test [1] is 99 µM; in test [2] it was over 115 µM.

With `CC(C)(C)OC(=O)N1C(=O)N(C(=O)OC(C)(C)C)C2(CCN(Cc3ccccc3)CC2)C1=O` [di(tert-butyl) 8-benzyl-2,4-dioxo-1,3,8-triazaspiro[4.5}decane-1,3-dicarboxylate], the IC50 in test [1] is 87 µM; in test [2] it was over 103 µM. For `CC1(C)SC2C(NC(=O)C(NC(=O)CN3C(=O)NC(c4ccccc4)(c4ccccc4)C3=O)c3ccccc3)C(=O)N2C1C(=O)O` (stereo not shown) [6-[{[{(2,5-dioso-4,4-diphenylimidazolidin-1-yl)acetyl]amino}(phenyl)acetyl]amino}-3,3-dimethyl-7-oxo-4-thia-1-azabicyclo[3.2.0]heptane-2-carboxylic acid] the same measures were 4 µM and over 62 µM.

As for `C[C@@]1(c2ccccc2)NC(=O)N(C(=O)/C=C/c2ccc(C(F)(F)F)cc2)C1=O` [(5S)-5-methyl-5-phenyl-3-{(2E)-3-[4-(trifluoromethyl)phenyl]prop-2-enoyl}imidazolidine-2,4-dione], the IC50 in test [1] was 98 µM; in test [2] it was over 100 µM.

As to `O=C1NC(=O)C(=Cc2cc(Br)cc(Br)c2O)N1` [5-(3,5-dibromo-2-hydroxy-benzylidene)-imidazolidine-2,4-dione], the half-maximal inhibitory concentration (IC50) in test [1] is 13 µM; in test [2], over 111 µM. The like results for `CCC1(c2ccc(C)cc2)N=C(O)N=C1O` (stereo not shown) [4-ethyl-4-(4-methylphenyl)-4H-imidazole-2,5-diol] were, in that order, 4 µM and over 184 µM. The like results for `Cc1ccc(C2(C3CC3)NC(=O)NC2=O)cc1C` (stereo not shown) [5-cyclopropyl-5-(3,4-dimethyl-phenyl)-2,4-imidazolidinedione] were, in that order, 41 µM and over 122 µM.

As for `Cc1cn([C@H]2C[C@H](N=[N+]=[N-])[C@@H](CO)O2)c(=O)[nH]c1=O` [AZT, reference compound], the IC50 in test [2] is under 0.2 µM. Consider `CC1(c2ccccc2)NC(=O)N(C(=O)/C=C/c2ccc(Cl)c(Cl)c2)C1=O` (stereo not shown) [3-[(2E)-3-(3,4-dichlorophenyl)prop-2-enoyl]-5-methyl-5-phenylimidazolidine-2,4-dione], for which the half-inhibitory concentration (IC50) is 52 µM in test [1] and over 107 µM in test [2].

Turning to `Cc1ccc(C(=O)C(C)N2C(=O)NC(C)(c3ccccc3)C2=O)cc1Cl` (stereo not shown) [3-[2-(3-chloro-4-methylphenyl)-1-methyl-2-oxoethyl]-5-methyl-5-phenyl-2,4-imidazolidinedione], the IC50 is 51 µM in test [1] and over 103 µM in test [2].

Regarding `O=C1NC(c2ccccc2)(c2ccccc2)C(=O)N1CCCBr` [3-(3-bromopropyl)-5,5-diphenyl-2,4-imidazolidinedione], the IC50 in test [1] is 56 µM; in test [2], over 146 µM.
